Data published in publication PMC5698418 (Nature Communications, 2017).
Residue numbers refer to the chain shown, from its start. In names and notes the source's numbering stands.

Key:
Arc protein [1] = experiment: Western blot of total Arc protein in primary cortical neurons; assay type: cell-based, mouse
Protocol: Forebrains of E16.5 C57BL/6 mouse embryos were dissected and then dissociated in trypsin solution for 15 min followed by three washes with phosphate-buffered saline (PBS). Single-cell suspension was achieved by gentle pipet trituration. Neurons were seeded in poly-L-lysine/laminin-coated six-well plates at a density of 2 × 10^6 per well and maintained in neurobasal medium containing B27 supplement (2%, Invitrogen, Grand Island, NY), penicillin (50 units ml^−1, Invitrogen), streptomycin (50 µg ml^−1, Invitrogen), and glutamine (1 mM, Sigma). For experiments involving BDNF (EMD Millipore Corps, Billerica, MA), the stock solution (2 ng µl^−1 in water) was added directly to the culture medium at a final concentration of 100 ng ml^−1 for the indicated period of time.
The following procedure was used to quantify western blots. First, equal quantity of protein lysate was analyzed by SDS–PAGE for each biological replicate. Second, the exposure time of the film to the ECL chemiluminescence was the same for each biological replicate. Third, all the exposed films were scanned on a Brother MFC-J485DW scanner in grayscale at a resolution of 300 dpi. Fourth, the look-up table (LUT) of the scanned tiff images was inverted and the intensity of each band was individually measured using the selection tool and the histogram function in Adobe Photoshop CC 2015 software. […]

eIF4E phosphorylation = experiment: Western blot of phospho-eIF4E in primary cortical neurons; assay type: cell-based, mouse; details: CGP 57380 5 µM co-treated 6 h with BDNF
Protocol: For western blot analyses, cells were collected by scraping in ice-cold radioimmunoprecipitation assay (RIPA) buffer (50 mM Tris-HCl (pH 8.0), 300 mM NaCl, 0.5% Igepal-630, 0.5% deoxycholic acid, 0.1% SDS, 1 mM EDTA) supplemented with a cocktail of protease inhibitors (Complete Protease Inhibitor without EDTA, Roche Applied Science, Indianapolis, IN) and phosphatase inhibitors (phosphatase inhibitor cocktail A, Santa Cruz Biotechnology). One volume of 2× Laemmli buffer (100 mM Tris-HCl (pH 6.8), 4% SDS, 0.15% bromophenol blue, 20% glycerol, 200 mM β-mercaptoethanol) was added and the extracts were boiled for 5 min. Samples were adjusted to an equal concentration after protein concentrations were determined using the BCA assay (Pierce, Thermo Fisher Scientific). Lysates were separated using SDS–PAGE and transferred to a nitrocellulose membrane. After transfer, the membrane was blocked in TBST (Tris-buffered saline + 0.1% Tween 20) supplemented with 5% nonfat powdered milk and probed with the indicated primary antibody at 4 °C overnight. After washing with TBST, the membrane was incubated with the appropriate secondary antibody and visualized using enhanced chemiluminescence (ECL) reagents according to the manufacturer’s guidelines (Pierce, Thermo Fisher Scientific). Uncropped scans with molecular weight reference are shown in Supplementary Figs. 10–20.

Arc protein [2] = experiment: Arc protein half-life after cycloheximide block in primary cortical neurons; assay type: cell-based, mouse; details: BDNF 4 h, then CHX plus oxamflatin; vehicle baseline ~47 min
Protocol: Each compound was tested at a concentration of 16.7 µM and in combination with BDNF or alone. Arc mRNA level induced by just BDNF was included in each experiment as a reference. Bars represent mean fold-change (f.c.) normalized to Arc expression measured in untreated cultures and each red point represents fold-change for an individual biological replicate (n = 4). d Primary cortical neurons were treated with BDNF for 4 h to induce Arc expression at which point protein synthesis was blocked by direct addition to culture media of cycloheximide (CHX, 50 µg ml^−1) in presence of vehicle or oxamflatin (16.7 µM). […] It is left out because the vehicle is a control and not a substance.
Specifically, we stimulated the cells with BDNF for 4 h to promote accumulation of Arc protein and then added CHX to block all de novo protein translation. Importantly, cultures treated this way were divided in two groups—one to which oxamflatin was added at the same time as CHX and another that was treated with the vehicle only (baseline measure). […] This experiment provided clear evidence that the impact of oxamflatin on Arc protein abundance is, at least in part, the result of a decrease in the rate of Arc protein degradation; however, a mechanistic explanation of how this KDAC inhibitor is modulating the turnover of Arc protein remained elusive at this point.

[3] = system: Arc puncta in dendrites of primary cortical neurons; experiment: Arc puncta along Map2-labeled dendrites (immunocytochemistry); assay type: cell-based, mouse; details: 16.7 µM with BDNF, vs untreated and BDNF alone; for BDNF: BDNF alone vs untreated
Excerpt: Chemical structure of each compound is presented on top. b Graphs show mean (n = 5) Arc/β-actin ratio (±SEM) for cells treated as in a. […] Tukey’s HSD post hoc test, *p < 0.05; **p < 0.01, ***p < 0.005; ****p < 0.0001. […] Representative captures of DIV14 mouse primary cortical neurons from each experimental condition co-immunostained for Arc (red fluorophore) and Map2 (green fluorophore). White arrowheads show examples of discrete Arc puncta. […] Tukey’s HSD post hoc test, *p < 0.05; ***p < 0.005; ****p < 0.0001
Indirect immunofluorescence detection of antigens was carried out using cortical neurons cultured on poly-L-lysine/laminin-coated coverslips in 24-well plates at a density of 0.1 × 10^7 per well. After experimental treatment, cells were washed twice with PBS and fixed for 30 min at room temperature with 4% paraformaldehyde in PBS. After fixation, cells were washed twice with PBS, permeabilized with PBST (PBS + 0.25% Triton X-100) for 20 min, blocked in blocking solution (PBS + 5% normal goat serum) for another 30 min, and finally incubated overnight at 4 °C with the first primary antibody in blocking solution. The next day, coverslips were extensively washed with PBS and incubated for 2 h at room temperature in the appropriate fluorophore-conjugated secondary antibody solution (Alexa 488- or Alexa 594-conjugated secondary antibody (Molecular Probes, Invitrogen) in blocking solution). After washing with PBS, the coverslips were incubated again overnight in primary antibody solution for the second antigen, and the procedure for conjugation of the fluorophore-conjugated secondary antibody was repeated as above. Finally, cell nuclei were counterstained with 4′,6-diamidino-2-phenylindole (DAPI), and coverslips were mounted on glass slides with ProLong Antifade reagent (Invitrogen).
(§1) Quantification of surface GluA1 puncta was performed according to the following strategy. First, overlapping digital images of GluA1 and Map2 immunostainings were collected using a Zeiss AxioObserver Z1 inverted microscope and ×63 oil immersion objective. Second, thresholding and segmentation based on the Map2 images was used to remove GluA1 signals outside of dendritic processes. Importantly, the same background/foreground cutoff threshold was used for images of all experimental conditions. Third, the length of dendrites for each image set was measured and recorded. Finally, distinct GluA1 foreground objects along dendrites >5 pixels were counted using the particle analysis tool in ImageJ and presented as the average number of GluA1 puncta per µm of dendrite length for each experimental condition.

[4] = system: BDNF-induced nuclear Arc expression in primary cortical neurons; experiment: Chemogenomic screen: high-content image-based assay of BDNF-induced nuclear Arc expression (96-well); assay type: cell-based, mouse
How it was run: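 DIV13 mouse primary cortical neurons (30,000 cells/well) are treated with compound at 16.7 µM and BDNF, in three biological replicates. Arc and acetyl-H3K9 are immunostained and imaged at ×40, and nuclear Arc signal is quantified automatically using acetyl-H3K9 as the nuclear mask.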

surface GluA1 = experiment: Surface AMPAR (GluA1) imaging along dendrites; assay type: cell-based, mouse; details: 16.7 µM, 6 h with BDNF, vs untreated and BDNF alone; for BDNF: BDNF alone vs baseline
Protocol: Our procedure to label surface AMPARs containing the GluA1 subunit was adapted from two reports[14],[61]. Precisely, DIV14 primary cortical neurons cultured on coverslips were rinsed once with room temperature PBS^MC (PBS containing 0.5 mM CaCl2, 1 mM MgCl2, and 4% sucrose). Live cells were then incubated for 30 min at room temperature with GluA1 primary antibody solution (PBS^MC with antibody against the extracellular N-terminus of GluA1 (EMD Millipore Corp, clone RH95, 5.0 µg ml^−1)). Next, cells were rinsed twice with ice-cold PBS^MC followed by fixation with 4% paraformaldehyde + 4% sucrose solution for 15 min at room temperature. After fixation, neurons were washed with regular PBS and then incubated overnight with Map2 primary antibody solution (PBS with 0.125% Triton X-100, 5% normal goat serum, and anti-Map2 antibody) to label dendrites. Next day, coverslips were washed with PBS, incubated with appropriate secondary antibodies for 1 h at room temperature, and finally mounted on glass slides with ProLong Antifade reagent (Invitrogen).
as §1

acetyl-H3K9 = experiment: Acetyl-H3K9 immunofluorescence in neuronal nuclei (multiplexed in screen); assay type: cell-based, mouse; details: screen, 16.7 µM
Protocol: To increase the throughput of our pharmacological screening for modulators of Arc, the above mentioned assay was adapted to cultures of mouse primary cortical neurons in 96-well plates.
Screening of compounds in the chemogenomic library was carried out using DIV13 primary forebrain cortical neurons cultured on poly-L-lysine/laminin-coated 96-well plates (Ibidi USA, Madison, WI). Cells were seeded at a density of 30,000 cells per well and treated with the compound library and BDNF according to the experimental design presented in Fig. 3a. After experimental treatment, cells were processed for Arc and acetyl-H3K9 immunocytochemistry according to the protocol described above. Both antigens (Arc and acetyl-H3K9) were imaged using an IN Cell Analyzer 6000 imaging system and a ×40 objective. […] High-throughput quantification of nuclear Arc immunofluorescence signal was performed in a similar fashion than the low-throughput procedure described above but with the exception that acetyl-H3K9 was used as a nuclear mask to guide the automated quantification of nuclear Arc immunofluorescence signal.

Neuro2a cells [5] = experiment: Polyubiquitination of WT and mutant Arc-Myc-FLAG (IP/western) in Neuro2a cells; assay type: cell-based, mouse; details: MG132 10 µM for 20 min
Excerpt: To assess polyubiquitination of Arc in DIV13 primary cortical neurons, Arc was immunopurified from total lysates using an agarose-conjugated anti-Arc monoclonal antibody (Santa Cruz Biotechnology, clone C-7). Overexpressed WT and mutant Arc-Myc-FLAG in Neuro2a cells were immunopurified from total lysates with anti-FLAG M2 antibody conjugated to magnetic beads (Sigma-Aldrich, M8823). Immunopurified materials were separated using SDS–PAGE and electrophoretically transferred to a nitrocellulose membrane. To enhance the immunodetection of ubiquitin conjugated to Arc, the nitrocellulose membrane was placed between two layers of Whatman filter paper, submerged in distilled water, and autoclaved for 30 min. After autoclaving, the membrane was blocked in blocking solution (TBST supplemented with 5% milk) for 30 min and incubated overnight with an antibody recognizing ubiquitin (Santa Cruz Biotechnology, clone P4D1, 1:200) in blocking solution. Subsequent steps were carried out according to the western blot procedure described above.

Neuro2a cells [6] = details: for Fold-change to WT: protein half-life in Neuro2a
Excerpt: Next, we aimed to determine whether the K24, K33, K55, and K70 residues participate in Arc protein turnover. […] We also included K70 in this experiment because of its position in the coiled-coil and nuclear retention domains of Arc (Fig. 5e) as well as its relative proximity to K55. For this test, we used site-directed mutagenesis to generate plasmids that would allow overexpression of an acetyl-mimic/unmodifiable mutant Arc-Myc-FLAG protein (lysine (K) to glutamine (Q) mutant) for each of these four sites. After transfecting sets of Neuro2a cells with these different constructs, we inhibited translation with CHX and monitored overexpressed protein levels for up to 6 h after.
Lysates were collected at the indicated time points and Arc-Myc-FLAG protein level analyzed in every sample by western blotting with an anti-FLAG antibody. Representative western blots are presented on top and quantification of data normalized to corresponding β-actin and presented as percentage of Arc-Myc-FLAG level (±SEM) at the initial time point after CHX application (t = 0). Curve represents exponential decay fit. b Estimate of protein half-life Arc for WT Arc-Myc-FLAG and each acetyl-mimic mutant is presented in table. c WT and acetyl-mutant Arc-Myc-FLAG polyubiquitination was determined in lysates from overexpressing Neuro2a cells. Lysates were immunoprecipitated with anti-FLAG and western blotted with anti-Ub or anti-Arc as indicated.
Neuro2A cells were cultured in DMEM (supplemented with 10% fetal bovine serum (Gemini-Bio-Products, West Sacramento, CA), penicillin (50 units ml^−1), and streptomycin (50 µg ml^−1)) and transfected overnight using Lipofectamine 2000 (Invitrogen) according to the manufacturer’s protocol. The Neuro2A cell line was generously shared by Dr. Grace Gill.
The pCMV6-Arc-Myc-DDK (FLAG) plasmid (MR206218) was purchased from OriGene Biotechnologies (Rockville, MD). The Arc-Myc-FLAG K24Q, K24R, K33Q, K55Q, K70Q, and K70R plasmids were generated with the help of the Q5 Site-Directed Mutagenesis Kit from New England BioLabs (Ipswich, MA) using WT pCMV6-Arc-Myc-FLAG as template. All constructs were verified by DNA sequencing.

`Nc1ncnc2n[nH]c(Nc3ccc(F)cc3)c12` [CGP 57380] was tested, and the “effect on BDNF-induced Arc expression (western blot)” value (Arc protein [1]; CGP 57380 5 µM co-treated 6 h with BDNF) was “did not prevent Arc expression” and the “effect on eIF4E phosphorylation” value (eIF4E phosphorylation) was “impacting eukaryotic translation initiation factor 4E (eIF4E) phosphorylation”.

With oxamflatin the “Arc protein half-life (regression analysis)” value (Arc protein [2]) was ~ 112 min, the “total Arc protein vs BDNF plus vehicle control (western blot, Arc/β-actin)” value (Arc protein [1]; BDNF 6 h supplemented with compound) was “significantly more Arc protein” and the “number of Arc puncta in dendritic projections” value [3] was “significantly greater number of Arc puncta”. The “Percentage of cell with nuclear Arc immunostaining above 2σ threshold” value [4] was 50.0%, the “rank among potentiators of BDNF-induced nuclear Arc expression in screen” value ([4]; 16.7 µM, three biological replicates) was “second” and the “Fold-change — Normalized to DMSO control (BDNF)” value ([4]; nuclear Arc-positive cells relative to DMSO + BDNF control, negative values = decrease) was 2.6 fold. For the same molecule, the “surface GluA1 puncta per dendrite µm” value (surface GluA1) was “significant decrease in surface GluA1 levels” and the “impact on acetyl-H3K9 immunofluorescence (Z-score)” value (acetyl-H3K9) was “strong impact”.

B1: K24Q: acetyl-mimic/unmodifiable mutant Arc-Myc-FLAG, lysine 24 to glutamine (protein, UniProt Q9WV31 1-396, looked up, variant K24Q)
Activity-regulated …: MELDHMTTGGLHAYPAPRGGPAAQPNVILQIGKCRAEMLEHVRRTHRHLLTEVSKQVERELKGLHRSVGKLENNLDGYVPTGDSQRWKKSIKACLCRCQETIANLERWVKREMHVWREVFYRLERWADRLESMGGKYPVGSEPARHTVSVGVGGPEPYCQEADGYDYTVSPYAITPPPAAGELPEQESVEAQQYQSWGPGEDGQPSPGVDTQIFEDPREFLSHLEEYLRQVGGSEEYWLSQIQNHMNGPAKKWWEFKQGSVKNWVEFKKEFLQYSEGTLSREAIQRELELPQKQGEPLDQFLWRKRDLYQTLYVDAEEEEIIQYVVGTLQPKLKRFLRHPLPKTLEQLIQRGMEVQDGLEQAAEPSGTPLPTEDETEALTPALTSESVASDRTQPE
modifications: Myc-FLAG tag
notes: acetyl-mimic/unmodifiable mutant Arc-Myc-FLAG, lysine 24 to glutamine
With B1 the “polyubiquitination of Arc-Myc-FLAG mutant” value (Neuro2a cells [5]) was “noticeable decrease in polyubiquitination”, the “Estimated t½” value (Neuro2a cells [6]) was 6.66 h and the “Fold-change to WT” value (Neuro2a cells [6]) was 2.40.

B2: K70Q: acetyl-mimic/unmodifiable mutant Arc-Myc-FLAG, lysine 70 to glutamine (protein, UniProt Q9WV31 1-396, looked up, variant K70Q)
Activity-regulated …: B1 Activity-regulated … with Q24K, K70Q
modifications: Myc-FLAG tag
notes: acetyl-mimic/unmodifiable mutant Arc-Myc-FLAG, lysine 70 to glutamine
B2 was tested, and the “polyubiquitination of Arc-Myc-FLAG mutant” value (Neuro2a cells [5]) was “noticeable decrease in polyubiquitination”, the “Estimated t½” value (Neuro2a cells [6]) was 6.15 h and the “Fold-change to WT” value (Neuro2a cells [6]) was 2.22.
